Results: US8580789B2, “Treating glaucoma” (The Cleveland Clinic Foundation, priority 2007, dated 2013)

What was measured:
cortical neurons = conditions: cited from earlier work; for Protection of neurons from the neurotoxic effect of 3-deoxyglucosone and methylglyoxal: cotreatment with aminoguanidine, pretreatment with N-acetylcysteine
[1] = tested on: internal limiting membrane of the retina; conditions: direct application; white light for 3 minutes; cited from earlier work
porcine corneas = assay: Corneal surface wave elastometry after standard crosslinking or flash-linking; conditions: group 1
Procedure: To investigate comparative cornea stiffness values in porcine corneas after standard crosslinking and a new, rapid method of crosslinking (flash-linking) using surface wave elastometry (Sonic Eye, PriaVision Inc, Menlo Park, Calif.).
Six porcine eyes were treated using a UVA double diode with 4.2 mW/cm2 UVA at 370 nm while applying 0.1% riboflavin-5-phosphate drops to the central cornea every 5 minutes as a photosensitizer for 30 min (group 1). The next 6 porcine corneas were treated with a single application of a customized photoactive crosslinking agent (PriaVision Inc) and 30 seconds of UVA light at the same power and wavelength (group 2). Following both experimental treatments, the Sonic Eye system was used to measure ultrasound surface wave propagation time between two fixed-distance transducers applied to the cornea along central horizontal and vertical positions. Intraocular pressure was continuously monitored using a digital pressure monitor display (Infinity SC9000XL, Drager medical, Lubeck, Germany) after vitreous chamber cannulation with a 23-gauge needle.

retinal ganglion cells = conditions: by inhibiting nitric oxide synthase; cited from earlier work
human sclera = conditions: scleral strips; 1 hour glutaraldehyde, 5 days glyceraldehydes, 30 minutes UVA for riboflavin/UVA; cited from earlier work
human LC = conditions: strips incubated in 0.5 M agent over 5 days; cited from earlier work
human PS = conditions: strips incubated in 0.5 M agent over 5 days; cited from earlier work
porcine sclera = conditions: scleral strips; 1 hour glutaraldehyde, 5 days glyceraldehydes, 30 minutes UVA for riboflavin/UVA; cited from earlier work
rabbit eyes = conditions: 370 nm light at 4.2 mW/cm2; cited from earlier work
peripapillary sclera = assay: Surface wave velocity (stiffness) of the peripapillary sclera of whole globes, Sonic Eye elastometer; design: species or system porcine; conditions: riboflavin 1% + UVA 30 min
Procedure: (§1) Surface wave velocity (SWV) is a measure of tissue stiffness, and is performed by detecting the velocity of an ultrasonic wave between 2 points (Sonic Eye, Priavision, Menlo Park, Calif.) (Dupps W J, et al., J Refract Surg; 23: 66-75 (2007)). 19 porcine eyes were divided into 2 groups. In group 1 (6 eyes), the SWV across the exposed optic nerve/lamina cribrosa complex (ON/LCC) was initially measured at the eyes' physiologic IOP and at 100 mmHg. The porcine globes were cannulated with IV tubing to facilitate the change in IOP. In group 2 (13 eyes), the pre-treatment SWV was measured across the same region and atop the peri-papillary sclera, after which both regions were treated with riboflavin 1%, Q 5 min×6, and UVA irradiation (˜365 nm at 3 mW/cm^2) for 30 min per eye. The SWV was then re-measured in each eye at the pre-treatment IOP and at 100 mmHg.
(§2) An annular sponge soaked in GTA was exposed to the peripapillary sclera for ˜30 minutes, and not the ON/LCC. Measurements were repeated as above, but also along each quadrant of peripapillary sclera to ensure uniformity and symmetry of crosslinking around the ON/LCC. The results are summarized as follows:
(§3) Eighteen porcine globes were divided evenly into 3 groups. The optic nerves were transected to expose the ON/LC, and each globe was infused through an in-line pressure transducer for direct IOP control. Surface wave velocity, a non-destructive measure of tissue stiffness, was measured across the ON/LC and PS before and after collagen crosslinking at IOP of 10 and 30 mmHg (groups 1 and 2) and at each globe's preinflation IOP and 80 mmHg (group 3). In group 3, papillary strain was measured by analyzing the displacement of fiducial marks immediately adjacent to the ON/LC using digital photography.
(§4) Surface wave velocity (SWV) is a measure of tissue stiffness that has been used in dermatologic applications to measure age-related changes (Potts R O, et al., J Invest Dermatol.; 82(1):97-100 (1984); Potts R O, et al., J Biomech.; 16(6):365-372 (1983); Davis B R, et al., Exp Gerontol; 24(3):201-210 (1989)), softening effects of tissue hydration and skin creams (Vexler A, et al., J Invest Dermatol; 113(5):732-739 (1999)), and sclerosing effects of radiation on breast skin (Gorodetsky R, et al., Int J Radiat Oncol Biol Phys.; 45(4):893-900 (1999)). When acoustic waves in the 0.5 to 30 kHz frequency range are used, propagation speed in skin is related to the density and stiffness of the tissue (Pereira J M, et al., J Biomech.; 23(8):745-751 (1990)). A prototype handheld ocular surface elastometer (Sonic Eye, Priavision, Menlo Park, Calif.) with an operating frequency within this range (4 kHz) and a fixed 4.5 mm wave propagation distance has been described in detail elsewhere (Dupps W J Jr, et al., J Refract Surg.; 23(1):66-75 (2007)). The Sonic Eye was used in this study as a non-destructive means of measuring local in situ tissue stiffness across and around the optic nerve head.
Eighteen porcine eyes were obtained from a local abattoir (Heffelfingers Meats, Inc., Jeromesville, Ohio) and were used within 24 hours postmortem. The optic nerves were dissected under microscopic visualization to expose the ON/LC (FIG. 1). […] Replicate SWV measurements were obtained at a rate of 1 per second with a triggering foot pedal to produce at least 5 measurements that were subsequently averaged for each region of interest. A PC software interface converted the time-of-flight data to velocity in meters per second (m/s), and the velocity data were exported to Excel (v. 11, SP2; Microsoft Corp, Redmond, Wash.) and Minitab (v. 14.20; Minitab Inc, State College, Pa.) for statistical analysis.
(§5) Three experimental groups of 6 eyes each were defined. In group 1, SWV across the optic nerve/lamina cribrosa complex and peripapillary scleral regions of interest were measured at 10 and 30 mmHg to represent a physiological range of pressures. […]

keratoconus = conditions: topical riboflavin with UVA light exposure; cited from earlier work
[2] = tested on: optic nerve/lamina cribrosa complex; assay: Surface wave velocity (stiffness) across the optic nerve/lamina cribrosa complex of whole globes, Sonic Eye elastometer; design: species or system porcine; conditions: Example 1 group 2
Procedure: as §1, §2, §3, §4
Eighteen porcine eyes were obtained from a local abattoir (Heffelfingers Meats, Inc., Jeromesville, Ohio) and were used within 24 hours postmortem. The optic nerves were dissected under microscopic visualization to expose the ON/LC (FIG. 1). […]
as §5

Question: Which “Neurotoxic effect to cortical neurons” value (cortical neurons) does the source give for `O=CC(=O)C[C@H](O)[C@H](O)CO` [3-deoxyglucosone] here?
Answer: Its value is “neurotoxic effect”.

Question: For `CC1(C)C(/C=C/C=C/C=C/C=C2\N(CCCCS(=O)(=O)O)c3ccc4ccccc4c3C2(C)C)=[N+](CCCCS(=O)(=O)[O-])c2ccc3ccccc3c21` [ICG, indocyanine green], which “Stiffness of the internal limiting membrane of the retina” value [1] is on record?
Answer: The value was “increase the stiffness”.

Question: Which “Protection of neurons from the neurotoxic effect of 3-deoxyglucosone and methylglyoxal” value (cortical neurons) does the source give for `CC(=O)N[C@@H](CS)C(=O)O` [N-acetylcysteine] here?
Answer: Its value is “protected the neurons”.

Question: For `Cc1cc2nc3c(=O)[nH]c(=O)nc-3n(C[C@H](O)[C@H](O)[C@H](O)COP(=O)(O)O)c2cc1C` [UVA+riboflavin, riboflavin-5-phosphate], which “Mean surface wave velocity of cornea after crosslinking” value (porcine corneas; 0.1% riboflavin-5-phosphate drops every 5 min, UVA 4.2 mW/cm2 370 nm 30 min) is on record?
Answer: Its value is 111.35±2.16 m/s.

Question: And the “Increase of mean surface wave velocity of cornea after crosslinking” value (porcine corneas; from 93.6 to 111.3 m/s, p=0.032)?
Answer: Its value is 17.7 units.

Question: For `N=C(N)NN` [aminoguanidine], which “Neuroprotective effect to retinal ganglion cells” value (retinal ganglion cells) is on record?
Answer: The value was “neuroprotective effect”.

Question: And the “Protection of neurons from the neurotoxic effect of 3-deoxyglucosone and methylglyoxal” value (cortical neurons)?
Answer: The value was “protected the neurons”.

Question: Which results are given for `O=CC(O)CO` (stereo not shown) [glyceraldehydes, glyceraldehyde]?
Answer: Rise in human scleral stress (rigidity) (human sclera): 34%; Increase of stress with 20% strain of human LC (human LC): > 1.5 fold; Increase of stress with 20% strain of human PS (human PS): > 2 fold; Rise in porcine scleral stress (rigidity) (porcine sclera): 5 ×

Question: Which “Increase of stress with 20% strain of human LC” value (human LC) does the source give for `CC(=O)C=O` [methylglyoxal] here?
Answer: Its value is > 2 fold.

Question: What about the “Increase of stress with 20% strain of human PS” value (human PS) of the same compound?
Answer: Its value is > 3 fold.

Question: For `Cc1cc2nc3c(=O)[nH]c(=O)nc-3n(C[C@H](O)[C@H](O)[C@H](O)CO)c2cc1C` [riboflavin/UVA, riboflavin], which “Rise in human scleral stress (rigidity)” value (human sclera) is on record?
Answer: Its value is 29%.

Question: What about the “Retinal cell death after riboflavin and irradiation” value (rabbit eyes) of the same compound?
Answer: The value was “retinal pigment epithelium (RPE), photoreceptor and outer nuclear layer death”.

Question: What about the “SWV of the peripapillary sclera after crosslinking at 100 mmHg” value (peripapillary sclera; Example 1 group 2, IOP 100 mmHg) of the same compound?
Answer: Its value is 63.5±1.8 m/s.

Question: And the “SWV (stiffness) of the peripapillary sclera after crosslinking” value (peripapillary sclera; Example 1 group 2, pre-treatment IOP, mean±SD)?
Answer: The value was 55.7±1.5 m/s.

Question: What about the “Stiffness of Peripapillary Sclera, Post-crosslinking Mean ± SD” value (peripapillary sclera; Example 3 Group 1, Low IOP 10 mmHg) of the same compound?
Answer: The value was 85.5 ± 13.5 m/s.

Question: What about the “Clinical effect in keratoconus” value (keratoconus) of the same compound?
Answer: The value was “used effectively as a stabilizing treatment for keratoconus”.

Question: What about the “Rise in porcine scleral stress (rigidity)” value (porcine sclera) of the same compound?
Answer: Its value is 1.5 ×.

Question: And the “Change of SWV of the ON/LCC upon raising the IOP to 100 mmHg after crosslinking” value ([2]; riboflavin 1% + UVA 30 min, p=0.1)?
Answer: Its value is “no change”.

Question: And the “SWV (stiffness) of the ON/LCC after crosslinking” value ([2]; riboflavin 1% Q 5 min x6 + UVA ~365 nm 3 mW/cm^2 30 min to ON/LCC and PS, pre-treatment IOP, mean±SD)?
Answer: Its value is 32.8±1.1 m/s.
